Key:
[1] = system: primary cultures (neurons) from cerebral cortices of fetal Wistar rats; assay: Biological Test 2: antagonism of the neuroprotective effect by MTA treatment (MTT); assay type: cell-based, rat; settings: 0.75 mM MTA added 30 minutes before test compound, glutamate
Protocol: This biological test is performed to determine whether the neuroprotective effect of the test compounds is due to the activation of receptors of physiological active substances or not, by using antagonistic test for neutralizing antibody and Inhibitor for FGF, NT-3, NT-4/5, BDNF, IGF-I/II, NGF, PDGF and estrogen, respectively.
Chem., 268, 4244 (1993)]. Therefore, the neuroprotective effect of the test compounds is inhibited by treatment of MTA, this effect is depended by the signal transfer effect through the phosphorylation of FGF receptor.
The inhibitors of the various kinds of receptor were dissolved in the optimum concentration, and MTA was dissolved in the concentration of 7.5 mM, just before the using. 30 minutes before the treatment of the test compounds, the optimum concentration of each inhibitors or 0.75 mM of MTA was added, and the neuroprotective effect of the test compounds was determined by mean of MTT method.

[2] = system: primary cultures (neurons) from cerebral cortices of fetal Wistar rats; assay: Biological Test 1: neuroprotective effect against glutamate induced neuronal cell death (MTT); assay type: cell-based, rat; settings: Compound: 1 μM; glutamate 1 mM; control group = 100%
Protocol: Cultures were maintained at 37 C. in a 90% air/10% CO2 humidified incubator. Glutamate was added to the culture at day 4 to the final concentration of 1 mM. […] MTT was dissolved in phosphate buffered saline (PBS, pH 7.4) at 5 mg/ml and filtered to sterilize and remove a small amount of insoluble residue present in some batches of MTT, and added to the cultures at a final concentration of 0.5 mg/ml.
The test compounds (1 μM) was added 24 hrs prior to glutamate treatment and simultaneously with glutamate.
Survival rate of living cells (%) =[(test compound group—glutamic acid treated group)÷(control group—glutamic acid treated group)]×100

Row | SMILES | Survival Rate (%) (Compound: 1 μl & MTA treatment) [1] | Survival Rate (%) (Compound: 1 μl) [2]
1 | Cc1c(C)c(OCC(=O)N(C)C2CCN(CC(=O)Nc3ccccc3)CC2)c(C)c(C)c1N [Compound 7, 2-(4-Amino-2,3,5,6-tetramethylphenoxy)-N-[1-(2-anilino-2-oxoethyl)-4-piperidinyl]-N-methylacetamide] | 32 | 76
2 | CCCCN1CCC(N(C)C(=O)COc2c(C)c(C)c(N)c(C)c2C)CC1 [Compound 9, 2-(4-Amino-2,3,5,6-tetramethylphenoxy)-N-(1-butyl-4-piperidinyl)-N-methylacetamide] | 5 | 104
3 | Cc1c(C)c(OCC(=O)N(C)C2CCN(CC(=O)c3ccccc3)CC2)c(C)c(C)c1N [Compound 10, 2-(4-Amino-2,3,5,6-tetramethylphenoxy)-N-[1-(2-phenyl-2-oxoethyl)-4-piperidinyl]-N-methylacetamide] | 31 | 86
4 | Cc1c(C)c(OCC(=O)N(C)C2CCN(CC(O)c3ccccc3)CC2)c(C)c(C)c1N (stereo not drawn) [Compound 11, 2-(4-Amino-2,3,5,6-tetramethylphenoxy)-N-[1-(2-hydroxy-2-phenylethyl)-4-piperidinyl]-N-methylacetamide] | 56 | 74
5 | Cc1c(C)c(OCC(=O)N(C)C2CCN(CCN3CCOCC3)CC2)c(C)c(C)c1N [Compound 16, 2-(4-Amino-2,3,5,6-tetramethylphenoxy)-N-methyl-N-{1-[2-(4-morpholinyl)ethyl]-4-piperidinyl}acetamide] | 33 | 101
6 | Cc1c(C)c(OCC(=O)N(C)C2CCN(CCOCC(O)c3ccccc3)CC2)c(C)c(C)c1N (stereo not drawn) [Compound 17, 2-(4-Amino-2,3,5,6-tetramethylphenoxy)-N-{1-[2-(2-hydroxy-2-phenylethoxy)ethyl]-4-piperidinyl}-N-methylacetamide] | 55 | 85
7 | Cc1c(C)c(OCC(=O)N(C)C2CCN(Cc3ccc(C(N)=O)cc3)CC2)c(C)c(C)c1N [Compound 19, 4-({4-[[(4-Amino-2,3,5,6-tetramethylphenoxy)acetyl]-(methyl)amino]-1-piperidinyl}methyl)bezamide] | 28 | 96
8 | Cc1c(C)c(OCC(=O)N(C)C2CCN(C(C)Cc3ccccc3)CC2)c(C)c(C)c1N (stereo not drawn) [Compound 22, 2-(4-Amino-2,3,5,6-tetramethylphenoxy)-N-methyl-N-[1-(1-methyl-2-phenylethyl)-4-piperidinyl]acetamide] | 32 | 79
9 | Cc1c(C)c(OC(C)(C)C(=O)N(C)C2CCN(CCc3ccccc3)CC2)c(C)c(C)c1N [Compound 28, 2-(4-Amino-2,3,5,6-tetramethylphenoxy)-N,2-dimethyl-N-[1-(2-phenylethyl)-4-piperidinyl]propanamide] | 46 | 103
10 | Cc1c(C)c(N)c(C)c(OCC(=O)N(C)C2CCN(C(=O)c3ccccc3)CC2)c1C [Compound 33, 2-(3-Amino-2,4,5,6-tetramethylphenoxy)N-(1-benzoyl-4-piperidinyl)-N-methylacetamide] | 46 | 120
11 | Cc1c(C)c(N)c(C)c(OCC(=O)N(C)C2CCN(Cc3ccc(C#N)cc3)CC2)c1C [Compound 34, 2-(3-Amino-2,4,5,6-tetramethylphenoxy)-N-[1-(4-cyano-benzyl)-4-piperidinyl]-N-methylacetamide] | 21 | 74
12 | Cc1c(C)c(NCC(=O)N(C)C2CCN(c3nc4ccccc4s3)CC2)c(C)c(C)c1N [Compound 37, 2-(4-Amino-2,3,5,6-tetramethylanilino)-N-[1-(1,3-benzothiazol-2-yl)-4-piperidinyl]-N-methylacetamide] | 20 | 95
